This passage reports IC50 results from patent US12435092B2, “Substituted imidazo[1,2-A]quinazolines as inhibitors of PARG” (858 Therapeutics, Inc., priority 2022, dated 2025).

SMILES strings stand for the structures. A value given as a limit tells only on which side of the number the result lay.

The target in the test is T1, cellular PARG (Homo sapiens, UniProt Q86W56).
T1 construct: endogenous in cells; host or cells: HeLa
T1 sequence (Q86W56 whole entry): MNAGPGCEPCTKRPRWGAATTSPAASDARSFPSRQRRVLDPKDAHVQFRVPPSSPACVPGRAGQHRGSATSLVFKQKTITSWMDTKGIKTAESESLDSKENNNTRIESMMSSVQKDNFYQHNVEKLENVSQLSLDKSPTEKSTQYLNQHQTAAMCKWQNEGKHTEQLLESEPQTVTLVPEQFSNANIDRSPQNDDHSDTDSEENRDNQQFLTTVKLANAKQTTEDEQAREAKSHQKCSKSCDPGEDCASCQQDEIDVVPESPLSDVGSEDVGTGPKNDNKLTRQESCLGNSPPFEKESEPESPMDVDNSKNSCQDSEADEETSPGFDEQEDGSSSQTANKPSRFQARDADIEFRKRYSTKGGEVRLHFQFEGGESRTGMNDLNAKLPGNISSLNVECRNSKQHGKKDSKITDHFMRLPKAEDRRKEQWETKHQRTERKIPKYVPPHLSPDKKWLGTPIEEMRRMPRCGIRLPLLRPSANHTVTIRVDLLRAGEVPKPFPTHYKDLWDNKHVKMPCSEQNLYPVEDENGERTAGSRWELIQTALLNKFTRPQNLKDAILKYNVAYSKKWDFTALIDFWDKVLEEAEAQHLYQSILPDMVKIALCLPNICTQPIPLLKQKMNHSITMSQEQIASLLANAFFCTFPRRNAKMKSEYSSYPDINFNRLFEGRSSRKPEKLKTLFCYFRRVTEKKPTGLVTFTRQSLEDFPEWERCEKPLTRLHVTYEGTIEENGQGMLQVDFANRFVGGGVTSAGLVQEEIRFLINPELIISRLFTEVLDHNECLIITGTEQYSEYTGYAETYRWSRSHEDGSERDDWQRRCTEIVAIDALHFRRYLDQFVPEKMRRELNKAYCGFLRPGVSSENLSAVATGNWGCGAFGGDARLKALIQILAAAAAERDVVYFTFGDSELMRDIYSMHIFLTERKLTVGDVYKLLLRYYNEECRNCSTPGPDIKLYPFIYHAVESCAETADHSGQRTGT
Description: Nuclear PAR accumulation assay (immunofluorescence high-content imaging). It counts as cell-based. The conditions noted are these: HeLa cells, 1 hour compound treatment then MMS 50 μg/mL for an additional hour. As to the method: Compound IC50 values for inhibition of cellular PARG were determined using an immunofluorescence high-content imaging assay for nuclear PAR accumulation. HeLa cells were plated at 15,000 cells/well in a 96-well plate the day before compound treatment and then treated with varying concentrations of test compound and incubated for 1 hour at 37° C.+5% CO2. Following test compound treatment, methylmethane sulfonate (MMS) was added to a final concentration of 50 μg/mL and the cells were incubated for an additional hour. Following treatment, the cells were fixed with ice cold 95% methanol and the plates sealed and placed at −20° C. for 15 minutes. The cells were then washed once with phosphate buffered saline (PBS) and permeabilized with 0.1% Triton-X 100 for 20 minutes at room temperature. The cells were again washed once with PBS and incubated with an anti-poly-ADP ribose (PAR) monoclonal antibody (Millipore Part #AM80 clone 10H) diluted 1:1,000 in 5% fetal bovine serum +0.1% Tween-20+PBS overnight at 4° C. The cells were then washed three times with PBS before incubation with a fluorescently conjugated goat anti-mouse antibody (Invitrogen A32723) diluted 1:500 in 5% FBS+0.1% Tween-20+PBS for 1 hour at room temperature. The cells were again washed three times with PBS and the nuclei labeled by incubating with 1 μg/mL DAPI (4′,6-diamidino-2-phenylindole). Nuclear PAR accumulation was evaluated using high-content fluorescence microscopy. Four fields for each well were acquired at 20× magnification resulting in at least 1,000 cells analyzed per well. Using high-content software (CellReporterXpress) the nuclei were detected and segmented using the DAPI channel and the fluorescence intensity of the PAR-Alexa 488 channel was quantified within the nuclei regions. Both the average intensity per nucleus and percent PAR positive cells were quantified. Percent PAR positive cells were identified by having greater anti-PAR labeling above the threshold set with vehicle DMSO treated control cells. Percent inhibition of PARG by test compounds was calculated by normalizing the data to the 0.1% DMSO and reference compound control values, which represent 0% and 100% inhibition of enzymatic activity, respectively. Concentration-response-curves and IC50 values were generated using four parameter logistic curve fit software.
`C[C@@H]1CN=C2N(CC3CC(=O)N(C)C3)C(=O)c3cc(S(=O)(=O)NC4(C)CC4)ccc3N21` (single isomer, unassigned) [Example 123]: the IC50 lay within 1000 to 10000 nM. For the compound `CC(c1cnn(C)c1)N1C(=O)c2cc(S(=O)(=O)NC3(C)CC3)ccc2N2C1=NC[C@H]2C` (single isomer, unassigned) [Example 125], the IC50 is 1000 to 10000 nM.

In turn, `CC(c1cnn(C)c1)N1C(=O)c2cc(S(=O)(=O)NC3(C)CC3)ccc2N2C1=NC[C@H]2C` (single isomer, unassigned) [Example 126] returned an IC50 of 1000 to 10000 nM. The value for `C[C@@H]1CN=C2N(Cc3cnn(CCO)c3)C(=O)c3cc(S(=O)(=O)NC4(C)CC4)ccc3N21` [Example 1, (R)-4-((1-(2-hydroxyethyl)-1H-pyrazol-4-yl)methyl)-1-methyl-N-(1-methylcyclopropyl)-5-oxo-1,2,4,5-tetrahydroimidazo[1,2-a]quinazoline-7-sulfonamide] was 100 to 1000 nM; that for `C[C@@H]1CN=C2N(Cc3cnn(C)c3)C(=O)c3cc(S(=O)(=O)NC4(C#N)CC4)ccc3N21` [Example 2, (R)—N-(1-cyanocyclopropyl)-1-methyl-4-((1-methyl-1H-pyrazol-4-yl)methyl)-5-oxo-1,2,4,5-tetrahydroimidazo[1,2-a]quinazoline-7-sulfonamide] was 100 to 1000 nM; that for `C[C@@H]1CN=C2N(CC3CC3)C(=O)c3cc(S(=O)(=O)NC4(C)CC4)ccc3N21` [Example 3, (R)-4-(cyclopropylmethyl)-1-methyl-N-(1-methylcyclopropyl)-5-oxo-1,2,4,5-tetrahydroimidazo[1,2-a]quinazoline-7-sulfonamide] was 100 to 1000 nM. The value for `C[C@@H]1CN=C2N(Cc3cccnc3)C(=O)c3cc(S(=O)(=O)NC4(C)CC4)ccc3N21` [Example 4, (R)-1-methyl-N-(1-methylcyclopropyl)-5-oxo-4-(pyridin-3-ylmethyl)-1,2,4,5-tetrahydroimidazo[1,2-a]quinazoline-7-sulfonamide] was 100 to 1000 nM; that for `Cc1cc(CN2C(=O)c3cc(S(=O)(=O)NC4(C)CC4)ccc3N3C2=NC[C@H]3C)n[nH]1` [Example 5, (R)-1-methyl-4-((5-methyl-1H-pyrazol-3-yl)methyl)-N-(1-methylcyclopropyl)-5-oxo-1,2,4,5-tetrahydroimidazo[1,2-a]quinazoline-7-sulfonamide] was 100 to 1000 nM.

Turning to `C[C@@H]1CN=C2N(Cc3cn[nH]c3)C(=O)c3cc(S(=O)(=O)NC4(C)CC4)ccc3N21` [Example 6, (R)-4-((1H-pyrazol-4-yl)methyl)-1-methyl-N-(1-methylcyclopropyl)-5-oxo-1,2,4,5-tetrahydroimidazo[1,2-a]quinazoline-7-sulfonamide], the IC50 fell in the range of 100 to 1000 nM. In the case of `Cc1noc(C)c1CN1C(=O)c2cc(S(=O)(=O)NC3(C)CC3)ccc2N2C1=NC[C@H]2C` [Example 8, (R)-4-((3,5-dimethylisoxazol-4-yl)methyl)-1-methyl-N-(1-methylcyclopropyl)-5-oxo-1,2,4,5-tetrahydroimidazo[1,2-a]quinazoline-7-sulfonamide], the IC50 is ≤ 100 nM. In the case of `C#C[C@H]1CN=C2N(Cc3cc(C)no3)C(=O)c3cc(S(=O)(=O)NC4(C)CC4)ccc3N21` [Example 9, (S)-1-ethynyl-N-(1-methylcyclopropyl)-4-((3-methylisoxazol-5-yl)methyl)-5-oxo-1,2,4,5-tetrahydroimidazo[1,2-a]quinazoline-7-sulfonamide] it was 100 to 1000 nM; in that of `C#C[C@@H]1CN=C2N(Cc3cc(C)no3)C(=O)c3cc(S(=O)(=O)NC4(C)CC4)ccc3N21` [Example 10, (R)-1-ethynyl-N-(1-methylcyclopropyl)-4-((3-methylisoxazol-5-yl)methyl)-5-oxo-1,2,4,5-tetrahydroimidazo[1,2-a]quinazoline-7-sulfonamide], ≤ 100 nM. In the case of `Cc1cc(CN2C(=O)c3cc(S(=O)(=O)NC4(C)CC4)ccc3N3C2=NC[C@@H]3C(C)C)on1` [Example 11, (S)-1-isopropyl-N-(1-methylcyclopropyl)-4-((3-methylisoxazol-5-yl)methyl)-5-oxo-1,2,4,5-tetrahydroimidazo[1,2-a]quinazoline-7-sulfonamide] it was > 10000 nM; in that of `Cc1cc(CN2C(=O)c3cc(S(=O)(=O)NC4(C)CC4)ccc3N3C2=NC[C@H]3C(C)C)on1` [Example 12, (R)-1-isopropyl-N-(1-methylcyclopropyl)-4-((3-methylisoxazol-5-yl)methyl)-5-oxo-1,2,4,5-tetrahydroimidazo[1,2-a]quinazoline-7-sulfonamide], 100 to 1000 nM; in that of `CC[C@H]1CN=C2N(Cc3c(C)noc3C)C(=O)c3cc(S(=O)(=O)NC4(C)CC4)ccc3N21` [Example 13, (S)-4-((3,5-dimethylisoxazol-4-yl)methyl)-1-ethyl-N-(1-methylcyclopropyl)-5-oxo-1,2,4,5-tetrahydroimidazo[1,2-a]quinazoline-7-sulfonamide], 1000 to 10000 nM. In the case of `CC[C@@H]1CN=C2N(Cc3c(C)noc3C)C(=O)c3cc(S(=O)(=O)NC4(C)CC4)ccc3N21` [Example 14, (R)-4-((3,5-dimethylisoxazol-4-yl)methyl)-1-ethyl-N-(1-methylcyclopropyl)-5-oxo-1,2,4,5-tetrahydroimidazo[1,2-a]quinazoline-7-sulfonamide] it was ≤ 100 nM; in that of `C#C[C@H]1CN=C2N(Cc3cnc(C)s3)C(=O)c3cc(S(=O)(=O)NC4(C)CC4)ccc3N21` [Example 15, (S)-1-ethynyl-N-(1-methylcyclopropyl)-4-((2-methylthiazol-5-yl)methyl)-5-oxo-1,2,4,5-tetrahydroimidazo[1,2-a]quinazoline-7-sulfonamide], 100 to 1000 nM. With `C#C[C@@H]1CN=C2N(Cc3cnc(C)s3)C(=O)c3cc(S(=O)(=O)NC4(C)CC4)ccc3N21` [Example 16, (R)-1-ethynyl-N-(1-methylcyclopropyl)-4-((2-methylthiazol-5-yl)methyl)-5-oxo-1,2,4,5-tetrahydroimidazo[1,2-a]quinazoline-7-sulfonamide], the IC50 was ≤ 100 nM.

Turning to `Cc1ncc(CN2C(=O)c3cc(S(=O)(=O)NC4(C)CC4)ccc3N3C2=NC[C@@H]3C2CC2)s1` [Example 17, (S)-1-cyclopropyl-N-(1-methylcyclopropyl)-4-((2-methylthiazol-5-yl)methyl)-5-oxo-1,2,4,5-tetrahydroimidazo[1,2-a]quinazoline-7-sulfonamide], the IC50 was in the range of 100 to 1000 nM.

For the compound `Cc1ncc(CN2C(=O)c3cc(S(=O)(=O)NC4(C)CC4)ccc3N3C2=NC[C@H]3C2CC2)s1` [Example 18, (R)-1-cyclopropyl-N-(1-methylcyclopropyl)-4-((2-methylthiazol-5-yl)methyl)-5-oxo-1,2,4,5-tetrahydroimidazo[1,2-a]quinazoline-7-sulfonamide], the IC50 was ≤ 100 nM. Consider `Cc1ncc(CN2C(=O)c3cc(S(=O)(=O)NC4(C)CC4)ccc3N3C2=NC[C@@H]3C(C)C)s1` [Example 19, (S)-1-isopropyl-N-(1-methylcyclopropyl)-4-((2-methylthiazol-5-yl)methyl)-5-oxo-1,2,4,5-tetrahydroimidazo[1,2-a]quinazoline-7-sulfonamide], for which the IC50 is > 10000 nM.

`Cc1ncc(CN2C(=O)c3cc(S(=O)(=O)NC4(C)CC4)ccc3N3C2=NC[C@H]3C(C)C)s1` [Example 20, (R)-1-isopropyl-N-(1-methylcyclopropyl)-4-((2-methylthiazol-5-yl)methyl)-5-oxo-1,2,4,5-tetrahydroimidazo[1,2-a]quinazoline-7-sulfonamide]: the IC50 is ≤ 100 nM. In the case of `Cc1cc(CN2C(=O)c3cc(S(=O)(=O)NC4(C)CC4)ccc3N3C2=NC[C@@H]3C2CC2)on1` [Example 21, (S)-1-cyclopropyl-N-(1-methylcyclopropyl)-4-((3-methylisoxazol-5-yl)methyl)-5-oxo-1,2,4,5-tetrahydroimidazo[1,2-a]quinazoline-7-sulfonamide] it was 100 to 1000 nM; in that of `Cc1cc(CN2C(=O)c3cc(S(=O)(=O)NC4(C)CC4)ccc3N3C2=NC[C@H]3C2CC2)on1` [Example 22, (R)-1-cyclopropyl-N-(1-methylcyclopropyl)-4-((3-methylisoxazol-5-yl)methyl)-5-oxo-1,2,4,5-tetrahydroimidazo[1,2-a]quinazoline-7-sulfonamide], ≤ 100 nM; in that of `CC[C@H]1CN=C2N(Cc3cc(C)no3)C(=O)c3cc(S(=O)(=O)NC4(C)CC4)ccc3N21` [Example 23, (S)-1-ethyl-N-(1-methylcyclopropyl)-4-((3-methylisoxazol-5-yl)methyl)-5-oxo-1,2,4,5-tetrahydroimidazo[1,2-a]quinazoline-7-sulfonamide], 1000 to 10000 nM. For `CC[C@@H]1CN=C2N(Cc3cc(C)no3)C(=O)c3cc(S(=O)(=O)NC4(C)CC4)ccc3N21` [Example 24, (R)-1-ethyl-N-(1-methylcyclopropyl)-4-((3-methylisoxazol-5-yl)methyl)-5-oxo-1,2,4,5-tetrahydroimidazo[1,2-a]quinazoline-7-sulfonamide], the IC50 is ≤ 100 nM.
